Experimental data reported in US20160122342A1, “ENHANCER OF ZESTE HOMOLOG 2 INHIBITORS” (GLAXOSMITHKLINE INTELLECTUAL PROPERTY (NO.2) LIMITED, priority 2013, published 2016).
Where a name gives a salt, the structure may show the parent alone.

Legend:
[1] = molecular target: T1, EZH2 within the PRC2 complex (Homo sapiens, UniProt Q15910); test: Assay Protocol 2: EZH2 methyltransferase scintillation proximity assay, biotinylated histone H3 peptide substrate; assay type: biochemical; settings: SPA, 3H-SAM, biotinylated unmethylated histone H3K27 peptide substrate, 5-member PRC2 complex
T1 construct: FLAG; made in house; host or cells: Sf9 cells
T1 sequence (Q15910 whole entry): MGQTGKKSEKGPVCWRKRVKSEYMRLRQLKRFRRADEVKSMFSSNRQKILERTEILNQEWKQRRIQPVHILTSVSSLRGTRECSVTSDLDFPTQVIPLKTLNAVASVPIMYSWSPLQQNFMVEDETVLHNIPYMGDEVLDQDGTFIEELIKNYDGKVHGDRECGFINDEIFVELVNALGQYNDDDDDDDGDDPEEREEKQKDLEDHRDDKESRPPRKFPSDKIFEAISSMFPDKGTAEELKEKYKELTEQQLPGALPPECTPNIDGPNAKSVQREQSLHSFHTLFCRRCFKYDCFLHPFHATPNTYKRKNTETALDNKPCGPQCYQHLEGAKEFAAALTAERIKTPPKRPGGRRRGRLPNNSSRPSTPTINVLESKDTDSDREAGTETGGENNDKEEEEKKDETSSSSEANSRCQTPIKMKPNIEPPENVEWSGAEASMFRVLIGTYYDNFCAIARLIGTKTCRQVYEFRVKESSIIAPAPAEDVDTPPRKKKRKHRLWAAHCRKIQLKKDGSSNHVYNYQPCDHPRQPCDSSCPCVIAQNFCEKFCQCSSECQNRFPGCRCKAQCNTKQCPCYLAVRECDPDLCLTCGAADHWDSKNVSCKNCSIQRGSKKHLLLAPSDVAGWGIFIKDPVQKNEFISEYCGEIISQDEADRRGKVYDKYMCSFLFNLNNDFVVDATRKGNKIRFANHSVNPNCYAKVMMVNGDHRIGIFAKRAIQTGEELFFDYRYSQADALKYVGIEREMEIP
T1 sequence (O75530 whole entry partner): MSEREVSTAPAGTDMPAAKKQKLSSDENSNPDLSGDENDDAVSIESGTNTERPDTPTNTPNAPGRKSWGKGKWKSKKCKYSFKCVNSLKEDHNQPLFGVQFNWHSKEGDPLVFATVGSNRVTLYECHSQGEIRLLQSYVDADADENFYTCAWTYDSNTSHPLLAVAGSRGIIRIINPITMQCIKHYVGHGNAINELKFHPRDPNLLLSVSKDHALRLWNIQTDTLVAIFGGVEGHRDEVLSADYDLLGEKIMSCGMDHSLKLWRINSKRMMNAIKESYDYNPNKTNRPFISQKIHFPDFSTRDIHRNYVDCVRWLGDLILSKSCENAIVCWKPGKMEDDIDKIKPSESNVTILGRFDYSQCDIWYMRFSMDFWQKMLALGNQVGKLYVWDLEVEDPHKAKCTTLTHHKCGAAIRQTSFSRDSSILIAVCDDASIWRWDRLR
T1 sequence (Q15022 whole entry partner): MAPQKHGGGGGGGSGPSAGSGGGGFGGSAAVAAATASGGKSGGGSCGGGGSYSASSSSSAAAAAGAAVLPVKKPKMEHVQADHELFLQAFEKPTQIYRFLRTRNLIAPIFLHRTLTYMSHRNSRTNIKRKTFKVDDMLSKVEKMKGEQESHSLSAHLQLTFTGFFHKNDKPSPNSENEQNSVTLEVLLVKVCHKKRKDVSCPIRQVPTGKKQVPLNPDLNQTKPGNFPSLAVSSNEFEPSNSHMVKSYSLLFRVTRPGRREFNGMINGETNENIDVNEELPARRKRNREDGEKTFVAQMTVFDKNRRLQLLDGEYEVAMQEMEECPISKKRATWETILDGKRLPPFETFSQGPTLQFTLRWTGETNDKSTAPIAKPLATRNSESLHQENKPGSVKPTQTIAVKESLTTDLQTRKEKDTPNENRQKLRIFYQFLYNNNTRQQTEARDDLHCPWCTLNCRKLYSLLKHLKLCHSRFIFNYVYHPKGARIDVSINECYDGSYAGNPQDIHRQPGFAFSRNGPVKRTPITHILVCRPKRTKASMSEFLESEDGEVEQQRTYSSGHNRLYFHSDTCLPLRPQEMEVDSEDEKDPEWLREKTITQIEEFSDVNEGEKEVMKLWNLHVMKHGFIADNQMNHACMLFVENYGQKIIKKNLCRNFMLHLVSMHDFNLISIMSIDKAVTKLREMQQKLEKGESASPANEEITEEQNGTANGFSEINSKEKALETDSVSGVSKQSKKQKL
T1 sequence (Q09028 whole entry partner): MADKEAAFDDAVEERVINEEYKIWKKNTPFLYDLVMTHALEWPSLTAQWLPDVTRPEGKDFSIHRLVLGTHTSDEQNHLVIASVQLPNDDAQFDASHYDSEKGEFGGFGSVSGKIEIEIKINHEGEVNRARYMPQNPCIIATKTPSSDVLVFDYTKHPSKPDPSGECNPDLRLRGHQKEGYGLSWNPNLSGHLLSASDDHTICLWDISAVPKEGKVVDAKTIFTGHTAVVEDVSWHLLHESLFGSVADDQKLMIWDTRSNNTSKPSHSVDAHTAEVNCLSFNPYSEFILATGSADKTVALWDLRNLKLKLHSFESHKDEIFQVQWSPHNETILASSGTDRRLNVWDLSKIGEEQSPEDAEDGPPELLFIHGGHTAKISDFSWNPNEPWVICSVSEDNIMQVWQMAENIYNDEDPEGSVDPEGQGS
T1 sequence (Q6ZN18 whole entry partner): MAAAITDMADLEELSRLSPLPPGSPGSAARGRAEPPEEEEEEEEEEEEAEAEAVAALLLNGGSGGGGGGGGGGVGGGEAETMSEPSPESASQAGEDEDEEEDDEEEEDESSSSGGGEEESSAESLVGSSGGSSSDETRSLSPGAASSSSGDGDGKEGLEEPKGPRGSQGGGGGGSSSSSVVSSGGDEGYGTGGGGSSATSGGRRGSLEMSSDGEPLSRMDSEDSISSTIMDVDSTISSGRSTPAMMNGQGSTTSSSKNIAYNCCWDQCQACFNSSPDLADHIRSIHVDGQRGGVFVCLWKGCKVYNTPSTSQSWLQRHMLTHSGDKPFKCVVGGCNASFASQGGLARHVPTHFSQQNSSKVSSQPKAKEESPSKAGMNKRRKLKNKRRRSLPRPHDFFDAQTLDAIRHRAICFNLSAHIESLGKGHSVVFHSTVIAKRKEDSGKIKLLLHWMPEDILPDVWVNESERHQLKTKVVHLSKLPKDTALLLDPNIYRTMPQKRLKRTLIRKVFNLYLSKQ
Experimental: Compounds contained herein were evaluated for their ability to inhibit the methyltransferase activity of EZH2 within the PRC2 complex. […] The peptides were captured on streptavidin-coated SPA beads and the resulting signal was read on a ViewLux plate reader. • 4. Prepare 10 mM stock of compounds from solid in 100% DMSO. • 5. […] Dispense 10 nL of compound from the dilution plate into reaction plates (Corning, 384-well polystyrene NBS, Cat#3673). Prepare the following solutions: • 7. 1× Base Buffer, 50 mM Tris-HCl, pH 8, 2 mM MgCl2: Per 1 L of base buffer, combine 1 M Tris-HCl, pH 8 (50 mL), 1 M MgCl2 (2 mL), and distilled water (948 mL). • 8. 1× Assay Buffer: Per 10 mL of 1× Assay Buffer, combine 1× Base Buffer (9.96 mL), 1 M DTT (40 uL), and 10% Tween-20 (1 uL) to provide a final concentration of 50 mM Tris-HCl, pH 8, 2 mM MgCl2, 4 mM DTT, 0.001% Tween-20. • 9. 2× Enzyme Solution: […] SPA Bead Solution: Per 1 mL of SPA Bead Solution, combine Streptavidin coated SPA beads (PerkinElmer, Cat# RPNQ0261, 40 mg) and 1× Assay Buffer (1 mL) to provide a working concentration of 40 mg/mL. • 11. 2× Substrate Solution: Per 10 mL of 2× Substrate Solution, combine 40 mg/mL SPA Bead Solution (375 uL), 1 mM biotinylated histone H3K27 peptide (200 uL), 12.5 uM 3H-SAM (240 uL; 1 mCi/mL), 1 mM cold SAM (57 uL), and 1× Assay Buffer (9.13 mL) to provide a final concentration of 0.75 mg/mL SPA Bead Solution, 10 uM biotinylated histone H3K27 peptide, 0.15 uM 3H-SAM (˜12 uCi/mL 3H-SAM), and 2.85 uM cold SAM. • 12. 2.67× Quench Solution: Per 10 mL of 2.67× Quench Solution, combine 1× Assay Buffer (9.73 mL) and 10 mM cold SAM (267 uL) to provide a final concentration of 100 uM cold SAM. • 3. […] Dispense 5 uL/well of 1× Assay Buffer to column 18 (low control reactions). • 11. Dispense 5 uL/well of 2× Substrate Solution to columns 1-24 (note: substrate solution should be mixed to ensure homogeneous bead suspension before dispensing into matrix reservoir). • 12. Dispense 5 uL/well of 2× Enzyme Solution to columns 1-17, 19-24. • 13. Incubate the reaction for 60 min at room temperature. • 5. Dispense 6 uL/well of the 2.67× Quench Solution to columns 1-24. • 6. Seal assay plates and spin for ˜1 min at 500 rpm. • 7. Dark adapt plates in the ViewLux instrument for 15-60 min. • 2. Read the assay plates on the Viewlux Plate Reader utilizing the 613 nm emission filter or clear filter (300 s exposure). Reagent addition can be done manually or with automated liquid handler. Percent inhibition was calculated relative to the DMSO control for each compound concentration and the resulting values were fit using standard IC50 fitting parameters within the ABASE data fitting software package.

[2] = molecular target: T1, EZH2 within the PRC2 complex; test: Assay Protocol 1: EZH2 methyltransferase scintillation proximity assay, mononucleosome substrate; assay type: biochemical; settings: Assay Protocol 1; SPA, 3H-SAM, Histone H3 of mononucleosome purified from HeLa cells; 5-member PRC2 complex; read-out: EZH2 IC50
Experimental: Compounds contained herein were evaluated for their ability to inhibit the methyltransferase activity of EZH2 within the PRC2 complex. […] Mononucleosomes were captured on SPA beads and the resulting signal is read on a ViewLux plate reader. • 1. Prepare 10 mM stock of compounds from solid in 100% DMSO. • 2. […] Dispense 100 nL of compound from the dilution plate into reaction plates (Grenier Bio-One, 384-well, Cat#784075). Prepare the following solutions: • 1. 50 mM Tris-HCl, pH 8: Per 1 L of base buffer, combine 1 M Tris-HCl, pH 8 (50 mL) and distilled water (950 mL). • 2. 1× Assay Buffer: […] SPA Bead Suspension: […] Per 10 mL of 2× Substrate Solution, combine 1× Assay Buffer (9728.55 uL), 800 ug/mL mononucleosomes (125 uL), 1 mM cold SAM (4 uL), and 7.02 uM 3H-SAM (142.45 uL; 0.55 mCi/mL) to provide a final concentration of 5 ug/mL nucleosomes, 0.2 uM cold SAM, and 0.05 uM 3H-SAM. • 6. 2.67× Quench/Bead Mixture: Per 10 mL of 2.67× Quench/Bead Mixture, combine ddH2O (9358 uL), 10 mM cold SAM (267 uL), 40 mg/mL Bead Suspension (375 uL) to provide a final concentration of 100 uM cold SAM and 0.5 mg/mL SPA beads. • 1. Dispense 100 nL/well of 100× Compound to test wells (as noted above). • 2. […] • 1. Dispense 5 uL/well of 1× Assay Buffer to column 18 (low control reactions). • 2. Dispense 5 uL/well of 2× Enzyme Solution to columns 1-17, 19-24. • 3. Spin assay plates for ˜1 minute at 500 rpm. • 4. Stack the assay plates, covering the top plate. • 5. Incubate the compound/DMSO with the enzyme for 30 minutes at room temperature. • 6. Dispense 5 uL/well of 2× Substrate Solution to columns 1-24. • 7. Spin assay plates for ˜1 minute at 500 rpm. • 8. Stack the assay plates, covering the top plate. • 9. Incubate the assay plates at room temperature for 1 hour. • 1. Dispense 5 uL/well of the 3× Quench/Bead Mixture to columns 1-24. • 2. Seal the top of each assay plate with adhesive TopSeal. • 3. Spin assay plates for ˜1 minute at 500 rpm. • 4. […] • 1. Read the assay plates on the Viewlux Plate Reader utilizing the 613 nm emission filter with a 300 s read time. Reagent addition can be done manually or with automated liquid handler. The final DMSO concentration in this assay is 1%. The positive control is in column 6; negative control is in column 18. Final starting concentration of compounds is 100 μM. Percent inhibition was calculated relative to the DMSO control for each compound concentration and the resulting values were fit using standard IC50 fitting parameters within the ABASE data fitting software package.

`CCN(c1cccc2c1CC=CCOCc1cc(C)[nH]c(=O)c1CNC2=O)C1CCOCC1` (racemic) [Example 12, (E)- and (Z)-11-(ethyl(tetrahydro-2H-pyran-4-yl)amino)-3-methyl-7,10,16,17-tetrahydrobenzo[h]pyrido[4,3-c][1,6]oxaazacyclotridecine-1,15(2H,5H)-dione] gave an IC50 [1] of 200 nM and an IC50 [2] of 126 nM.
For `Cc1cc2c(c(=O)[nH]1)CNC(=O)c1cc(Cl)cc(O[C@H]3CC[C@H](N)CC3)c1C/C=C/CC2` [Example 1, (E)-10-((trans-4-aminocyclohexyl)oxy)-12-chloro-3-methyl-5,6,15,16-tetrahydrobenzo[c]pyrido[4,3-j][1]azacyclododecine-1,14(2H,9H)-dione hydrochloride], the IC50 [1] was 100 nM and the IC50 [2] was 32 nM.
Work on `Cc1cc2c(c(=O)[nH]1)CNC(=O)c1cc(Cl)cc(O[C@H]3CC[C@H](N(C)C)CC3)c1C/C=C/CC2` [Example 2, (E)-12-chloro-10-((trans-4-(dimethylamino)cyclohexyl)oxy)-3-methyl-5,6,15,16-tetrahydrobenzo[c]pyrido[4,3-j][1]azacyclododecine-1,14(2H,9H)-dione] yielded an IC50 [1] of 126 nM and an IC50 [2] of 25 nM.
Work on `Cc1cc2c(c(=O)[nH]1)CNC(=O)c1cc(Cl)cc(O[C@H]3CC[C@H](N(C)C)CC3)c1CCCCC2` [Example 3, 12-chloro-10-((trans-4-(dimethylamino)cyclohexyl)oxy)-3-methyl-6,7,8,9,15,16-hexahydrobenzo[c]pyrido[4,3-j][1]azacyclododecine-1,14(2H,5H)-dione] yielded an IC50 [1] of 158 nM and an IC50 [2] of 100 nM.
Work on `CCN(c1cccc2c1C/C=C/CCc1cc(C)[nH]c(=O)c1CNC2=O)C1CCOCC1` [Example 6, (E)-10-(ethyl(tetrahydro-2H-pyran-4-yl)amino)-3-methyl-5,6,15,16-tetrahydrobenzo[c]pyrido[4,3-j][1]azacyclododecine-1,14(2H,9H)-dione hydrochloride, 0.10 1,4-dioxane solvate] yielded an IC50 [1] of 158 nM and an IC50 [2] of 100 nM.
For `Cc1cc2c(c(=O)[nH]1)CNC(=O)c1cc(Cl)cc(O[C@H]3CC[C@H](N(C)C)CC3)c1C/C=C/CCC2` [Example 8, (E)-13-chloro-11-((trans-4-(dimethylamino)cyclohexyl)oxy)-3-methyl-5,6,7,10,16,17-hexahydro-1H-benzo[c]pyrido[4,3-k][1]azacyclotridecine-1,15(2H)-dione], the IC50 [1] was 251 nM and the IC50 [2] was 63 nM.
Molecule `CCN(c1cccc2c1C/C=C/CCc1cc(C)[nH]c(=O)c1CN(C)C2=O)C1CCOCC1` [Example 9, (E)-10-(ethyl(tetrahydro-2H-pyran-4-yl)amino)-3,15-dimethyl-5,6,15,16-tetrahydrobenzo[c]pyrido[4,3-j][1]azacyclododecine-1,14(2H,9H)-dione] has an IC50 [1] of 126 nM and an IC50 [2] of 79 nM.
`CCN(c1cccc2c1C/C=C/CCCCc1cc(C)[nH]c(=O)c1CNC2=O)C1CCOCC1` [Example 14, (E)-12-(ethyl(tetrahydro-2H-pyran-4-yl)amino)-3-methyl-5,6,7,8,17,18-hexahydrobenzo[c]pyrido[4,3-l][1]azacyclotetradecine-1,16(2H,11H)-dione hydrochloride] was tested, and the IC50 [1] was 158 nM and the IC50 [2] was 50 nM.
Molecule `CCN(c1cc(Cl)cc2c1C/C=C/CCc1cc(C)[nH]c(=O)c1CNC2=O)C1CCOCC1` [Example 17, (E)-12-chloro-10-(ethyl(tetrahydro-2H-pyran-4-yl)amino)-3-methyl-5,6,15,16-tetrahydrobenzo[c]pyrido[4,3-j][1]azacyclododecine-1,14(2H,9H)-dione] has an IC50 [1] of 126 nM and an IC50 [2] of 32 nM.
`Cc1cc2c(c(=O)[nH]1)CNC(=O)c1cc(Cl)cc(OC(C)C)c1C/C=C/CC2` [Example 18, (E)-12-chloro-10-isopropoxy-3-methyl-5,6,15,16-tetrahydrobenzo[c]pyrido[4,3-j][1]azacyclododecine-1,14(2H,9H)-dione] was tested, and the IC50 [1] was 316 nM and the IC50 [2] was 100 nM.
With `CCN(c1cccc2c1C/C=C/CCCc1cc(C)[nH]c(=O)c1CNC2=O)C1CCOCC1` [Example 19, (E)-11-(ethyl(tetrahydro-2H-pyran-4-yl)amino)-3-methyl-5,6,7,10,16,17-hexahydro-1H-benzo[c]pyrido[4,3-k][1]azacyclotridecine-1,15(2H)-dione] the IC50 [1] was 79 nM and the IC50 [2] was 40 nM.
Molecule `CCN(c1cccc2c1CCCCCCc1cc(C)[nH]c(=O)c1CNC2=O)C1CCOCC1` [Example 20, 11-(ethyl(tetrahydro-2H-pyran-4-yl)amino)-3-methyl-5,6,7,8,9,10,16,17-octahydro-1H-benzo[c]pyrido[4,3-k][1]azacyclotridecine-1,15(2H)-dione] has an IC50 [1] of 1000 nM and an IC50 [2] of 25 nM.
Work on `CCN(c1cccc2c1C/C=C\CCCc1cc(C)[nH]c(=O)c1CNC2=O)C1CCOCC1` [Example 21, (Z)-11-(ethyl(tetrahydro-2H-pyran-4-yl)amino)-3-methyl-5,6,7,10,16,17-hexahydro-1H-benzo[c]pyrido[4,3-k][1]azacyclotridecine-1,15(2H)-dione] yielded an IC50 [1] of 398 nM and an IC50 [2] of 100 nM.
For `CCN(c1cccc2c1C/C=C/CCc1cc(C)[nH]c(=O)c1CNC2=O)C1CCC(F)(F)CC1` [Example 30, (E)-10-((4,4-difluorocyclohexyl)(ethyl)amino)-3-methyl-5,6,15,16-tetrahydrobenzo[c]pyrido[4,3-j][1]azacyclododecine-1,14(2H,9H)-dione], the IC50 [1] was 79 nM and the IC50 [2] was 16 nM.
`CCN(c1cccc2c1C/C=C/CCc1cc(C)[nH]c(=O)c1CNC2=O)C1CCNCC1` [Example 31, (E)-10-(ethyl(piperidin-4-yl)amino)-3-methyl-5,6,15,16-tetrahydrobenzo[c]pyrido[4,3-j][1]azacyclododecine-1,14(2H,9H)-dione] showed an IC50 [1] of 200 nM and an IC50 [2] of 13 nM.
